Assay: Photochromic properties of the compound in the (co)polymer matrix under xenon lamp exposure
Assay type: physicochemical
Conditions: for color exhibited: color of the photochromic compound; for λmax (nm): same conditions as compound (I): 0.05% by weight in matrix; for T0 (%) / DO induced: same conditions as compound (I); for DO induced: xenon lamp (40.000 lux)
Protocol: The matrix is based on a short-chain (meth)acrylate difunctional monomer and a long-chain alkenic difunctional monomer. Used at 0.05% by weight within the matrix (conditioned under 2 mm thickness), the compound has led to the results shown in the Table below.
Compounds C1, C2, C3, other naphthopyrans according to the application WO-A-94 22850, are identified by their developed formula in the Example part of the text. All compounds (II), C1, C2, C3 were tested under the same conditions as those indicated above with reference to compound (I).
The half-time of fading : t1/2, expressed in seconds is specified below for each one of the compounds. This parameter characterizes the kinetics of the return to the initial state (after darkening)(see its exact definition given earlier in the present text with reference to the Table grouping the properties of compound (I)).

[1] = 0.05% by weight within the matrix, 2 mm thickness
[2] = optical density after minus before exposure under a xenon lamp (40.000 lux), 0.05% by weight in matrix, 2 mm
[3] = transmission before exposure, 0.05% by weight in matrix, 2 mm

| Structure (SMILES) | color exhibited | λmax (nm) (2 mm) | T0 (%) (transmission before exposure) | DO induced | λmax 1 [1] [nm] | λmax 2 [1] [nm] | DOinduced** at 489 nm [2] | DOinduced** at 588 nm [2] | T0* at 489 nm [3] [%] | T0* at 588 nm [3] [%] |
| --- | --- | --- | --- | --- | --- | --- | --- | --- | --- | --- |
| COc1ccc(C2(c3ccccc3)C=Cc3c(cc(N4CCOCC4)c4ccccc34)O2)cc1 (centres unmarked) [Compound (II), 3-(p-methoxyphenyl)-3-phenyl-6-morpholino-3H-naphtho-[2,1-b]pyran] | yellow | 439 | 79 | 1.65 | – | – | – | – | – | – |
| COc1ccc(C2(c3ccc(N(C)C)cc3)C=Cc3c(C)cc4c(OC)cc(OC)cc4c3O2)cc1 (centres unmarked) [Compound (I), 2-(p-dimethylaminophenyl)-2-(p-methoxyphenyl)-5-methyl-7,9-dimethoxy-[2H]-naphtho[1,2-b]pyran] | violet | – | – | – | 489 | 588 | 0.58 | 0.94 | 85 | 86 |
| COc1ccc(C2(c3ccccc3)C=Cc3c(cc(N4CCCCC4)c4ccccc34)O2)cc1 (centres unmarked) [Compound C3, reference compound] | – | 430 | 79 | 1.77 | – | – | – | – | – | – |

More lines, now with the values ahead:

| color exhibited | λmax (nm) (2 mm) | T0 (%) (transmission before exposure) | DO induced | λmax 1 [1] [nm] | λmax 2 [1] [nm] | DOinduced** at 489 nm [2] | DOinduced** at 588 nm [2] | T0* at 489 nm [3] [%] | T0* at 588 nm [3] [%] | Structure (SMILES) |
| --- | --- | --- | --- | --- | --- | --- | --- | --- | --- | --- |
| – | 430 | 68 | 1.60 | – | – | – | – | – | – | COc1ccc(C2(c3ccc(C(F)(F)F)cc3)C=Cc3c(cc(N4CCOCC4)c4ccccc34)O2)cc1 (centres unmarked) [Compound C2, reference compound] |
| – | 456 | 74 | 1.37 | – | – | – | – | – | – | COc1ccc(C2(c3ccc(OC)cc3)C=Cc3c(cc(N4CCOCC4)c4ccccc34)O2)cc1 [Compound C1, reference compound] |

From EP0980535B1, “PHOTOCHROMIC COMPOSITIONS, PHOTOCHROMIC COMPOUNDS (CO)POLYMER MATRICES” (Corning S.A., priority 1997, dated 1998)
